Data: patent US20250320211A1, “COMPOUND, COMPOSITION, AND ELECTROPHOTOGRAPHIC PHOTORECEPTOR” (MITSUBISHI CHEMICAL CORPORATION, priority 2022, published 2025)

Assay: Evaluation of solubility in organic solvent
Type: physicochemical
Conditions: toluene/2-propanol mixed solvent
Protocol: Compounds 1 to 2 or Comparative Compounds 1 to 5 were respectively added to a mixed solvent of toluene/2-propanol=3/7 (mass ratio) at room temperature (25° C.) so as to have a concentration of 8% by mass, and stirred for 10 minutes with a rotor without heating or cooling. The state of dissolution was then visually observed, and the solubility was evaluated according to the following criteria.
When any residue was observed, the mixture was heated in a water bath at a constant temperature (40° C.) for 10 minutes as described below, and the state of dissolution was visually observed again to evaluate the solubility.

Compound	solubility in organic solvents (in words)
CCCCCCC(CCCCCC)N1C(=O)c2ccc3c4ccc5c6c(ccc(c7ccc(c2c37)C1=O)c64)C(=O)N(C(CCCCCC)CCCCCC)C5=O [Comparative Compound 2]	poor solubility
C=C(C)C(=O)OCC(COC(=O)C(=C)C)OC(=O)CCC(=O)OCC(CC(C)C)N1C(=O)c2ccc3c4ccc5c6c(ccc(c7ccc(c2c37)C1=O)c64)C(=O)N(C(COC(=O)CCC(=O)OC(COC(=O)C(=C)C)COC(=O)C(=C)C)CC(C)C)C5=O (stereo not shown) [Comparative Compound 4]	excellent solubility in organic solvents
C=CC(=O)OCCOC(=O)CCC(=O)OCC(CC(C)C)N1C(=O)c2ccc3c4ccc5c6c(ccc(c7ccc(c2c37)C1=O)c64)C(=O)N(C(COC(=O)CCC(=O)OCCOC(=O)C=C)CC(C)C)C5=O (stereo not shown) [Comparative Compound 3]	poor solubility
C=C(C)C(=O)OCC(COC(=O)C(=C)C)OC(=O)CCC(=O)OCC(COC(=O)CCC(=O)OC(COC(=O)C(=C)C)COC(=O)C(=C)C)N1C(=O)c2ccc3c4ccc5c6c(ccc(c7ccc(c2c37)C1=O)c64)C(=O)N(C(COC(=O)CCC(=O)OC(COC(=O)C(=C)C)COC(=O)C(=C)C)COC(=O)CCC(=O)OC(COC(=O)C(=C)C)COC(=O)C(=C)C)C5=O [Comparative Compound 5]	excellent solubility in organic solvents
